According to patent US20210308319A1, “TRANSITION TO TRANSLUCENT SUTURES” (University of Pittsburgh - Of the Commonwealth System of …, priority 2018, published 2021):

Assay: UV-Vis spectroscopy of the rate of dissolution of dyes in water
Type: physicochemical
Details: excess dye in cuvette, 320-800 nm, 0 to 10 minutes
Description: An excess mass of both crystal violet and violet stearate was added to separate, clean polystyrene cuvettes. The spectrometer was calibrated to measure absorbance over the range of 320-800 nm. A background UV-Vis spectrum was then collected using a clean cuvette filled with distilled water (this spectrum is later subtracted from the dye solution spectrums to give the absorbance resulting from the dye only). The dye containing cuvettes were then loaded into the UV-Vis spectrometer. Water was then carefully syringed down the side of the first cuvette until the cuvettes were filled, and the spectrum immediately collected upon addition. […] The 20 minutes spectra are not included due to the fact they are very similar to the 10 minute spectra for both dyes tested.

| SMILES | Change of UV-Vis absorbance spectra over time after addition of water (rate of dissolution) |
| --- | --- |
| CN(C)c1ccc(C(=C2C=CC(=[N+](C)C)C=C2)c2ccc(N(C)C)cc2)cc1 [Crystal Violet, crystal violet] | do not change over time at all |
| CCCCCCCCCCCCCCCCCC(=O)[O-].CN(C)c1ccc(C(=C2C=CC(=[N+](C)C)C=C2)c2ccc(N(C)C)cc2)cc1 [Violet Stearate] | definite increase in absorbance over time |
